The values that follow are results of earlier work, collected in US20250214928A1 (priority 2023, published 2025).

SMILES strings stand for the structures.

Data set [1] relates to tumor-specific antigens (CEA, CA 19/9, CA 125, prostate-specific antigen). The following applies: meta-analysis of phase I/II trials, over 400 patients, dose-dependent, ref. [9].
In data set [2] the test system is kainic acid-induced status epilepticus model. The following applies: mouse study, ref. [5].

For `CNC(=O)[C@@H](NC(=O)[C@H](CC(C)C)[C@H](O)C(=O)NO)C(C)(C)C` [marimastat, (2R,3S)-N-1-((S)-3,3-dimethyl-1-methylamino-1-oxobutan-2-yl)-N-4,3-dihydroxy-2-isobutylsuccinamide], in data set [1], the “growth indicators of tumor-specific antigens (all four)” value is “significantly reduced”. In data set [2], the duration of seizures entry is “reduced” and the number of seizures entry was “reduced”.
